Each structure is given as a SMILES string. The source made the active and inactive calls. The calls are words filed in the database; no cut-off is given here.

Data set [1] deals with HT-29. Nature of the data set: Antiproliferative activity against human HT29 cells at 5 uM after 24 hrs by MTT assay. The class given is functional, cell-based. (Formazan colour is commonly taken as a measure of viable cells.)
Data set [2] can be described thus: Growth inhibition of monkey COS1 cells at 0.63 uM after 48 hrs by MTT assay. The class given is cell-based, Macaca mulatta. Particulars: rhesus monkey, cos-1, 48 h.
For data set [3], the system named is HT-29. Nature of the data set: Induction of apoptosis in human HT29 cells at 5 uM. It counts as functional, cell-based.
The nature of data set [4]: Growth inhibition of monkey COS1 cells at 1.25 uM after 48 hrs by MTT assay. The class given is cell-based, Macaca mulatta. Particulars: rhesus monkey, cos-1, 48 h.
Data set [5] can be described thus: Growth inhibition of monkey COS1 cells at 2.5 uM after 48 hrs by MTT assay. The class given is cell-based, Macaca mulatta. Particulars: rhesus monkey, cos-1, 48 h.
The nature of data set [6]: Growth inhibition of monkey COS1 cells at 5 uM after 48 hrs by MTT assay. It counts as cell-based, Macaca mulatta. Particulars: rhesus monkey, cos-1, 48 h.

In the case of `COC(=O)C(O)(CC(=O)O)CC(=O)O`, the result in the data set on HT-29 [1] and with HT-29 [3] was Active. Besides, the Activity result in data set [2], in data set [4], in data set [5] and in data set [6] was “Non-toxic” throughout.
For the molecule `CC[C@@]1(O)C(=O)OCc2c1cc1n(c2=O)Cc2cc3ccccc3nc2-1`, the outcome with HT-29 [3] was Active.
With `CCC(CC[C@@H](C)[C@H]1CC[C@H]2[C@@H]3CC=C4C[C@@H](O)CC[C@]4(C)[C@H]3CC[C@]12C)C(C)C` (single isomer, unassigned) [BETA-SITOSTEROL], the result in the data set on HT-29 [1] and in the data set on HT-29 [3] was Active. The Activity entry in data set [2], in data set [4], in data set [5] and in data set [6] was “Non-toxic” throughout.

For the origin of these results see ChEMBL document CHEMBL1149588, “Inhibition of colon cancer cell growth and antioxidant activity of bioactive compounds from Poncirus trifoliata (L.) Raf” (Bioorg Med Chem, 2007).
